{"source": "patent US20040091947A1", "about": "“Screening strategy for anticancer drugs” (priority 2002, published 2004)", "key": {"[1]": {"system": "wild-type HT1080 cells", "experiment": "FACS analysis of GF7/PI stained cells, radiation-induced changes in MI", "format": "cell-based, human", "settings": "4 mM caffeine, 9 Gy irradiation", "description": "(§1) Mitotic index and the incidence of mitotic catastrophe were determined using mitotic cell specific antibodies (MCSA) as follows. Three different MCSA were compared using fluorescence activated cell sorting (FACS) based on immunofluorescence labeling with MCSA coupled with propidium iodide (PI) staining for DNA content. In this procedure, cells were washed, trypsinized, fixed with an equal volume of 70% ethanol (on ice), resuspended in a small volume of 1% BSA-PBS containing an MCSA, incubated for 1 hour at room temperature, and then washed and bound with secondary (fluorescently-labeled) antibody. The tested MCSA included MPM2 (available from Upstate Biotechnology, Cat. #05-368) and two antibodies provided by Dr. P. Davies (Albert Einstein College of Medicine), including the previously characterized TG3 (Anderson et al., 1998, Exp. Cell Res. 238: 498-502) and unpublished GF7 antibody.\n(§2) FACS analysis of GF7/PI stained cells was used to analyze radiation-induced changes in the MI of HT1080 fibrosarcoma cells with different cell cycle checkpoint integrity status."}, "[2]": {"system": "HT1080 cells transduced with GSE56", "experiment": "FACS analysis of GF7/PI stained cells, radiation-induced changes in MI", "format": "cell-based, human", "settings": "4 mM caffeine, 9 Gy irradiation", "description": "as §1, §2"}, "[3]": {"system": "panel of 14 solid tumor-derived cell lines", "settings": "moderate equitoxic doses of doxorubicin, 14 lines, cited from earlier work"}, "[4]": {"system": "BJ-ELB cells", "experiment": "Cell growth / cell number by Coulter counter, doxorubicin-treated cells", "format": "cell-based, human", "description": "These cell lines were cultured in a 4:1 mixture of DMEM and Medium 199, with 10% fetal calf serum, supplemented with glutamine, pyruvate, penicillin and streptomycin.\nFor comparative analysis of specific cellular responses, a concentration of 30 nM doxorubicin was chosen, which had approximately equal growth-inhibitory effect in both cell lines (FIG. 3B)."}, "[5]": {"system": "BJ-EN cells", "experiment": "Fluorescence microscopy of DAPI-stained cells (micronuclei, apoptotic morphology, mitotic index, mitotic figures)"}, "[6]": {"system": "BJ-EN cells", "experiment": "Cell growth / cell number by Coulter counter, doxorubicin-treated cells"}, "[7]": {"system": "BJ-ELB cells", "experiment": "Fluorescence microscopy of DAPI-stained cells (micronuclei, apoptotic morphology, mitotic index, mitotic figures)"}, "[8]": {"settings": "after release from 30 nM doxorubicin (3 days)"}, "[9]": {"settings": "day 2 after release from 30 nM doxorubicin"}, "[10]": {"settings": "two days after release from 30 nM doxorubicin (3 days)"}, "[11]": {"settings": "two days after release from doxorubicin"}}}
{"smiles": "Cn1c(=O)c2c(ncn2C)n(C)c1=O", "note": "[caffeine]", "values": [{"measurement": "increase in MI after irradiation in the presence of caffeine", "setting": "[1]", "value": "~2", "unit": "fold"}, {"measurement": "increase in MI after irradiation in the presence of caffeine", "setting": "[2]", "value": "up to 3 fold"}]}
{"smiles": "COc1cccc2c1C(=O)c1c(O)c3c(c(O)c1C2=O)C[C@@](O)(C(=O)CO)C[C@@H]3O[C@H]1C[C@H](N)[C@H](O)[C@H](C)O1", "note": "[doxorubicin]", "values": [{"measurement": "lines that showed predominantly apoptotic response", "setting": "[3]; all other lines developed mitotic catastrophe", "value": "two"}, {"measurement": "lines that exhibited the senescent phenotype after doxorubicin treatment", "setting": "[3]", "value": "Eleven of 14"}, {"measurement": "change in cell number during doxorubicin treatment", "setting": "[4]; 30 nM doxorubicin, first day", "value": "increased their number on the first day"}, {"measurement": "change in cell number after release from the drug", "setting": "[4]; day 3 after release (3 dR) from 30 nM doxorubicin", "value": "decreased to the same value as at the time of doxorubicin addition"}, {"measurement": "effect of addition of doxorubicin on mitosis", "setting": "[5]; 30 nM doxorubicin present", "value": "immediate and complete cessation of mitosis"}, {"measurement": "fraction of cells with apoptotic morphology", "setting": "[5]; [8]", "value": 0.9, "unit": "%"}, {"measurement": "mitotic index (MI)", "setting": "[5]; [9]", "value": 0.4, "unit": "%"}, {"measurement": "micronucleated cell fraction", "setting": "[5]; [10]", "value": 1.7, "unit": "%"}, {"measurement": "abnormal mitotic figures", "setting": "[5]; [11]", "value": 40, "unit": "%"}, {"measurement": "mitotic figures that were metaphases and telophases", "setting": "[5]; [11]", "value": 29, "unit": "%"}, {"measurement": "normal mitotic figures", "setting": "[5]; [11]", "value": 60, "unit": "%"}, {"measurement": "change in cell number during doxorubicin treatment", "setting": "[6]; 30 nM doxorubicin, 3 days, BJ-EN", "value": "essentially no change in cell number"}, {"measurement": "resistance to doxorubicin (effect on cell growth)", "setting": "[6]; 3-day exposure to different concentrations, BJ-EN compared with BJ-ELB, except for the lowest drug doses", "value": "more resistant to doxorubicin than BJ-ELB cells"}, {"measurement": "change in cell number after release from the drug", "setting": "[6]; three days in drug-free media after 30 nM doxorubicin for 3 days, BJ-EN", "value": "did not change significantly"}, {"measurement": "effect of addition of doxorubicin on mitosis", "setting": "[7]; 30 nM doxorubicin present", "value": "only partially inhibited"}, {"measurement": "fraction of cells with apoptotic morphology", "setting": "[7]; [8]", "value": 6.6, "unit": "%"}, {"measurement": "mitotic index (MI)", "setting": "[7]; [9]", "value": 8.0, "unit": "%"}, {"measurement": "micronucleated cell fraction", "setting": "[7]; [10]", "value": 26.4, "unit": "%"}, {"measurement": "mitotic figures that represented anaphase or telophase", "setting": "[7]; [11]", "value": 1, "unit": "%"}, {"measurement": "normal mitotic figures", "setting": "[7]; [11]", "value": 8, "unit": "%"}]}
